The structures appear in SMILES notation. Peptide text beside a SMILES is read from it.

The test system of the assay is guinea pig trachea smooth muscle. The assay is described as follows: Bronchodilator (relaxant) effect on isolated guinea pig tracheal rings. It counts as cell-based. Conditions: for Relative Potency: guinea pig trachea, relative to VIP = 100%; for EC50: guinea pig tracheal rings, relaxation as % of maximum response to VIP 10^-6 M, three tissues pooled, linear regression, read-out: EC50 (M), agonist activity, bronchodilator effect. The source says: The bronchodilatory effect of VIP analogs was studied in a model utilizing guinea pig trachea. Wasserman, M. A. et al. "Comparative In Vitro Tracheal Relaxant Effects of Porcine and Hen VIP" in Vasoactive Intestinal Peptide ed. Said, S.I., Raven Press (New York, 1982).
All tissues were taken from male albino guinea pigs weighing 400-600 g, anesthetized with urethane 2 g/kg i.p. After exsanguination the trachea was removed and divided into four ring segments (3 mm length). Each ring was suspended by two 30 guage stainless steel wires in a 10 ml jacket tissue bath and attached via 4-0 silk thread to a Grass force displacement transducer (model FT03C, Grass Instrument Co., Quincy, MA), for isometric recording of tension. The smooth muscle was bathed in modified Krebs solution of the following composition: NaCl, 120 mM; KCl, 4.7 mM; CaCl2, 2.5 mM; MgSO4.7H2 O; 1.2 mM; NaHCO3, 25 mM; KH2 PO4 monobasic, 1.2 mM; and dextrose, 10 mM. Tissue baths were maintained at 37.5° C. and constantly bubbled with 95% O2 and 5% CO2. Responses were recorded on an 8 channel and 4 channel Hewlett-Packard (model 7702B and 7754A, respectively) recorder (Hewlett Packard, Paramus, NJ). Tracheal rings were placed under a resting tension of 1.5 g which was determined to be at or near optimal in preliminary experiments. Frequent readjustments of tension were required during the 60 min. stabilization period which followed. Tissues were rinsed at 15 min. intervals.
Cumulative concentration response curves were obtained for each tissue by successive […] in the bath concentration of VIP or potential VIP agonists according to the method of VanRossum J. M., Arch. Int Pharmacodyn, 143, 299-330 (1963). Only one cummulative dose response curve was obtained on a single piece of tissue. To minimize variability between tissues, relaxant responses are expressed as a percentage of the maximum response obtainable to VIP (10^-6 M=100%) added at the end of the concentration response curve. Responses obtained from three tissues were pooled and EC50 values were determined by linear regression.

For orientation: EC50 means the concentration giving half of the maximal effect. Take `CCCC[C@H](NC(=O)[C@H](CCC(N)=O)NC(=O)[C@H](CCCCN)NC(=O)[C@H](CCCNC(=N)N)NC(=O)[C@H](CC(C)C)NC(=O)[C@H](CCCNC(=N)N)NC(=O)[C@@H](NC(=O)[C@H](Cc1ccc(O)cc1)NC(=O)[C@H](C)NC(=O)[C@H](CC(=O)O)NC(=O)[C@@H](NC(=O)[C@H](Cc1ccccc1)NC(=O)[C@@H](NC(=O)[C@H](C)NC(=O)[C@H](CC(=O)O)NC(=O)[C@H](CO)NC(=O)[C@@H](N)Cc1c[nH]cn1)C(C)C)[C@@H](C)O)[C@@H](C)O)C(=O)N[C@@H](C)C(=O)N[C@H](C(=O)N[C@@H](CCCCN)C(=O)N[C@@H](CCCCN)C(=O)N[C@@H](Cc1ccc(O)cc1)C(=O)N[C@@H](CC(C)C)C(=O)N[C@@H](CC(N)=O)C(=O)N[C@@H](CO)C(=O)N[C@H](C(=O)N[C@@H](CC(C)C)C(=O)N[C@@H](CC(N)=O)C(N)=O)[C@@H](C)CC)C(C)C` [(Ala^9, Nle^17)--VIP, (Ala^9, Nle^17)VIP] (HELM PEPTIDE1{H.S.D.A.V.F.T.D.A.Y.T.R.L.R.K.Q.[Nle].A.V.K.K.Y.L.N.S.I.L.N.[am]}$$$$V2.0): the “Relative Potency” value was found to be 100% and the EC50 is 1e-08 M.
Turning to `CCCC[C@H](NC(=O)[C@H](CCC(N)=O)NC(=O)[C@H](CCCCN)NC(=O)[C@H](CCCNC(=N)N)NC(=O)[C@H](CC(C)C)NC(=O)[C@H](CCCNC(=N)N)NC(=O)[C@@H](NC(=O)[C@H](Cc1ccc(O)cc1)NC(=O)[C@H](CC(N)=O)NC(=O)[C@H](CC(=O)O)NC(=O)[C@@H](NC(=O)[C@H](Cc1ccccc1)NC(=O)[C@@H](NC(=O)[C@H](C)NC(=O)[C@H](CC(=O)O)NC(=O)[C@H](CO)NC(=O)[C@@H](N)Cc1c[nH]cn1)C(C)C)[C@@H](C)O)[C@@H](C)O)C(=O)N[C@@H](C)C(=O)N[C@H](C(=O)N[C@@H](CCCCN)C(=O)N[C@@H](CCCCN)C(=O)N[C@@H](Cc1ccc(O)cc1)C(=O)N[C@@H](CC(C)C)C(=O)N[C@@H](CC(N)=O)C(=O)N[C@@H](CO)C(=O)N[C@H](C(=O)N[C@@H](CC(C)C)C(=O)N[C@H](C(N)=O)[C@@H](C)O)C(C)C)C(C)C` [(Nle^17, Val^26, Thr^28)--VIP, (Nle^17, Val^26, Thr^28)VIP] (HELM PEPTIDE1{H.S.D.A.V.F.T.D.N.Y.T.R.L.R.K.Q.[Nle].A.V.K.K.Y.L.N.S.V.L.T.[am]}$$$$V2.0), the “Relative Potency” value is 208% and the EC50 was found to be 4.8e-09 M.
Consider `CCCC[C@H](NC(=O)[C@H](CCC(N)=O)NC(=O)[C@H](CCCCN)NC(=O)[C@H](CCCNC(=N)N)NC(=O)[C@H](CC(C)C)NC(=O)[C@H](CCCNC(=N)N)NC(=O)[C@@H](NC(=O)[C@H](Cc1ccc(O)cc1)NC(=O)[C@H](CC(N)=O)NC(=O)[C@H](CC(=O)O)NC(=O)[C@@H](NC(=O)[C@H](Cc1ccccc1)NC(=O)[C@@H](NC(=O)[C@H](C)NC(=O)[C@H](CC(=O)O)NC(=O)[C@H](CO)NC(=O)[C@@H](N)Cc1c[nH]cn1)C(C)C)[C@@H](C)O)[C@@H](C)O)C(=O)N[C@@H](C)C(=O)N[C@H](C(=O)N[C@@H](CCCCN)C(=O)N[C@@H](CCCCN)C(=O)N[C@@H](Cc1ccc(O)cc1)C(=O)N[C@@H](CC(C)C)C(=O)N[C@@H](CC(N)=O)C(=O)N[C@@H](CO)C(=O)N[C@H](C(=O)N[C@@H](CC(C)C)C(=O)N[C@H](C(N)=O)[C@@H](C)O)[C@@H](C)CC)C(C)C` [(Nle^17, Thr^28)--VIP, (Nle^17, Thr^28)VIP] (HELM PEPTIDE1{H.S.D.A.V.F.T.D.N.Y.T.R.L.R.K.Q.[Nle].A.V.K.K.Y.L.N.S.I.L.T.[am]}$$$$V2.0), for which the “Relative Potency” value amounted to 108% and the EC50 stood at 9.3e-09 M.
